Measured values taken from PubChem BioAssay AID1963981 (Molecular Pharmacology Branch, DTP, NCI, 2024).
Blank lines part the entries; values can stand above or below the compound they belong to.

Tested on: 354836-022-R-J1-PDC multicell spheroid viability
Assay: Anticancer human tumor 354836-022-R-J1-PDC patient-derived head and neck squamous cell carcinoma cell line growth inhibition [PI3K]
Settings: for viability, T/C: stronger effect = lower value
Method in brief: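 Viability of mixed-cell spheroids was determined after exposure to pairwise combinations, one partner being inavolisib, alpelisib, duvelisib or copanlisib. Highest tested concentration matched clinical Cmax where known and 10 microM where not, descending in half-log steps.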

[1] = curve of first compound, second compound 0.0316 µM
[2] = curve of first compound, second compound 0.1 µM
[3] = curve of first compound, second compound 0.316 µM
[4] = curve of first compound, second compound 1 µM
[5] = second compound 0.0316 µM, first compound 0.0316 µM
[6] = second compound 0.0316 µM, first compound 0.1 µM
[7] = second compound 0.1 µM, first compound 0.0316 µM
[8] = second compound 0.1 µM, first compound 0.1 µM
[9] = second compound 0.316 µM, first compound 0.0316 µM
[10] = second compound 0.316 µM, first compound 0.1 µM
[11] = second compound 1 µM, first compound 0.0316 µM
[12] = second compound 1 µM, first compound 0.1 µM
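Further: spheroids exposed to agents for seven days before the viability read.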

IC50 (curve of first compound, second compound 0.00316 µM): > 10000 nM
IC50 (curve of first compound, second compound 0.01 µM): > 10000 nM
IC50 [1]: > 10000 nM
IC50 [2]: < 31.6 nM
IC50 [3]: < 31.6 nM
IC50 [4]: < 31.6 nM
SMILES: CC(Cn1ccc(-c2ccc(C#N)c(Cl)c2)n1)NC(=O)c1cc(C(C)O)[nH]n1 (stereo unspecified) + COc1c(OCCCN2CCOCC2)ccc2c3n(c(=NC(=O)c4cnc(N)nc4)nc12)CCN3
viability, T/C (second compound 0.00316 µM, first compound 0.0316 µM): 119%
viability, T/C (second compound 0.00316 µM, first compound 0.1 µM): 99.5%
viability, T/C (second compound 0.00316 µM, first compound 0.316 µM): 106%
viability, T/C (second compound 0.00316 µM, first compound 1 µM): 104%
viability, T/C (second compound 0.00316 µM, first compound 3.16 µM): 102%
viability, T/C (second compound 0.00316 µM, first compound 10 µM): 86.3%
viability, T/C (second compound 0.01 µM, first compound 0.0316 µM): 98.8%
viability, T/C (second compound 0.01 µM, first compound 0.1 µM): 104%
viability, T/C (second compound 0.01 µM, first compound 0.316 µM): 92.5%
viability, T/C (second compound 0.01 µM, first compound 1 µM): 113%
viability, T/C (second compound 0.01 µM, first compound 3.16 µM): 105%
viability, T/C (second compound 0.01 µM, first compound 10 µM): 80%
viability, T/C [5]: 69.6%
viability, T/C [6]: 82.7%
viability, T/C (second compound 0.0316 µM, first compound 0.316 µM): 85.2%
viability, T/C (second compound 0.0316 µM, first compound 1 µM): 86.9%
viability, T/C (second compound 0.0316 µM, first compound 3.16 µM): 88.5%
viability, T/C (second compound 0.0316 µM, first compound 10 µM): 67.5%
viability, T/C [7]: 48.4%
viability, T/C [8]: 52.5%
viability, T/C (second compound 0.1 µM, first compound 0.316 µM): 52%
viability, T/C (second compound 0.1 µM, first compound 1 µM): 57.1%
viability, T/C (second compound 0.1 µM, first compound 3.16 µM): 58.1%
viability, T/C (second compound 0.1 µM, first compound 10 µM): 51.9%
viability, T/C [9]: 11.8%
viability, T/C [10]: 18.3%
viability, T/C (second compound 0.316 µM, first compound 0.316 µM): 15.1%
viability, T/C (second compound 0.316 µM, first compound 1 µM): 20.9%
viability, T/C (second compound 0.316 µM, first compound 3.16 µM): 15.2%
viability, T/C (second compound 0.316 µM, first compound 10 µM): 18.2%
viability, T/C [11]: 2.74%
viability, T/C [12]: 1.7%
viability, T/C (second compound 1 µM, first compound 0.316 µM): 1.89%
viability, T/C (second compound 1 µM, first compound 1 µM): 2.26%
viability, T/C (second compound 1 µM, first compound 3.16 µM): 2.15%
viability, T/C (second compound 1 µM, first compound 10 µM): 2.19%

IC50 (curve of compound): > 10000 nM
SMILES: CC(Cn1ccc(-c2ccc(C#N)c(Cl)c2)n1)NC(=O)c1cc(C(C)O)[nH]n1 (stereo unspecified)
viability, T/C (compound 0.0316 µM): 108% [middle of 4 runs]
viability, T/C (compound 0.1 µM): 95.5% [middle of 4 runs]
viability, T/C (compound 0.316 µM): 112% [middle of 4 runs]
viability, T/C (compound 1 µM): 93.7% [middle of 4 runs]
viability, T/C (compound 3.16 µM): 99.2% [middle of 4 runs]
viability, T/C (compound 10 µM): 77.8% [middle of 4 runs]

IC50 [1]: > 100 nM
IC50 [2]: > 100 nM
IC50 [3]: > 100 nM
IC50 [4]: > 100 nM
IC50 (curve of first compound, second compound 3.16 µM): > 100 nM
IC50 (curve of first compound, second compound 10 µM): > 100 nM
SMILES: CC(=O)c1c(C)c2cnc(Nc3ccc(N4CCNCC4)cn3)nc2n(C2CCCC2)c1=O + CC(Nc1ncnc2nc[nH]c12)c1cc2cccc(Cl)c2c(=O)n1-c1ccccc1
viability, T/C (second compound 0.0316 µM, first compound 0.000316 µM): 96.8%
viability, T/C (second compound 0.0316 µM, first compound 0.001 µM): 110%
viability, T/C (second compound 0.0316 µM, first compound 0.00316 µM): 108%
viability, T/C (second compound 0.0316 µM, first compound 0.01 µM): 103%
viability, T/C [5]: 97.7%
viability, T/C [6]: 99.5%
viability, T/C (second compound 0.1 µM, first compound 0.000316 µM): 89.4%
viability, T/C (second compound 0.1 µM, first compound 0.001 µM): 99.3%
viability, T/C (second compound 0.1 µM, first compound 0.00316 µM): 94.9%
viability, T/C (second compound 0.1 µM, first compound 0.01 µM): 91.5%
viability, T/C [7]: 105%
viability, T/C [8]: 101%
viability, T/C (second compound 0.316 µM, first compound 0.000316 µM): 90%
viability, T/C (second compound 0.316 µM, first compound 0.001 µM): 98.8%
viability, T/C (second compound 0.316 µM, first compound 0.00316 µM): 100%
viability, T/C (second compound 0.316 µM, first compound 0.01 µM): 100%
viability, T/C [9]: 111%
viability, T/C [10]: 113%
viability, T/C (second compound 1 µM, first compound 0.000316 µM): 82.2%
viability, T/C (second compound 1 µM, first compound 0.001 µM): 96.7%
viability, T/C (second compound 1 µM, first compound 0.00316 µM): 97.2%
viability, T/C (second compound 1 µM, first compound 0.01 µM): 110%
viability, T/C [11]: 96.8%
viability, T/C [12]: 91.6%
viability, T/C (second compound 3.16 µM, first compound 0.000316 µM): 108%
viability, T/C (second compound 3.16 µM, first compound 0.001 µM): 107%
viability, T/C (second compound 3.16 µM, first compound 0.00316 µM): 98.5%
viability, T/C (second compound 3.16 µM, first compound 0.01 µM): 104%
viability, T/C (second compound 3.16 µM, first compound 0.0316 µM): 88.3%
viability, T/C (second compound 3.16 µM, first compound 0.1 µM): 90.2%
viability, T/C (second compound 10 µM, first compound 0.000316 µM): 89.8%
viability, T/C (second compound 10 µM, first compound 0.001 µM): 95.2%
viability, T/C (second compound 10 µM, first compound 0.00316 µM): 91.1%
viability, T/C (second compound 10 µM, first compound 0.01 µM): 109%
viability, T/C (second compound 10 µM, first compound 0.0316 µM): 98.8%
viability, T/C (second compound 10 µM, first compound 0.1 µM): 91.5%
